The values that follow come from patent publication US11427807B2, “Serum-free medium containing PDGF for DS cells” (Shiseido Company, Ltd., priority 2013, dated 2022).

The test system of this test is dermal sheath (DS) cells. The experiment in a line: Growth of DS cells using serum-free medium. It counts as cell-based, human. The conditions noted are these: culturing in serum-free medium containing added PDGF. The method, then:
A 12-well plate (BD) was coated with CELLStart™ (Life Technologies), and cryopreserved DS cells (from person scalp, DSC, passage number: 0) were suspended in 1 ml of serum-free medium and seeded on the plate at 4×10^4 cells per well. The serum-free media used were 1) HFDM-1(−) medium (Cell Science & Technology Institute), 2) HFDM-1(+) medium (Cell Science & Technology Institute), 3) PDGF-AA (10 ng/ml)-dissolved HFDM-1(−) medium and 4) PDGF-BB (10 ng/ml)-dissolved HFDM-1(−) medium. Culturing was conducted at 37° C. in the presence of 5% carbon dioxide gas. The cells were observed under microscopy on days 2, 5 and 10 (FIG. 1: 40×), and the number of cells per visual field was counted (FIG. 2).
A 12-well plate (BD) was coated with CELLStart™ (Life Technologies), and cryopreserved DS cells (from person scalp, DSC, passage number: 0) were suspended in 1 ml of serum-free medium and seeded on the plate at 4×10^4 cells per well. The serum-free media used were 1) StemProSFM CTS (sup+, Life Technologies), 2) PDGF-BB (10 ng/ml)-dissolved StemProSFM CTS (sup+, Life Technologies) and 3) Mosaic hMSC SF Culture Medium (sup+, BD) and 4) PDGF-BB (10 ng/ml)-dissolved Mosaic hMSC SF Culture Medium (sup+, BD). […] The cells were observed under microscopy on days 2 and 7 (FIG. 3: 40×), and the number of cells per visual field was counted (FIG. 4). […]

Turning to PDGF, the “growth of DS cells (number of cells per visual field)” value is reported as “significantly grow DS cells”.
